According to ChEMBL document CHEMBL1155518, “Synthesis and structure-activity relationships of long-acting beta2 adrenergic receptor agonists incorporating metabolic inactivation: an antedrug approach” (J Med Chem, 2010):
The source made the active and inactive calls. The rule behind the calls is not given here.

What was measured:
Cavia porcellus [1] = organism: Cavia porcellus; assay: Bronchodialatory activity against electrically-stimulated contraction in guinea pig trachea assessed as inhibition of recovery of contractile effect measured after 3 hrs of drug washout; format: functional, tissue-based
[2] = Bronchodialatory activity against electrically-stimulated contraction in guinea pig trachea assessed as time taken for inducing 50% maximum relaxant effect
[3] = biological target: Beta-2 adrenergic receptor (Homo sapiens, UniProt P07550)
Sequence of Beta-2 adrenergic receptor (P07550 whole entry): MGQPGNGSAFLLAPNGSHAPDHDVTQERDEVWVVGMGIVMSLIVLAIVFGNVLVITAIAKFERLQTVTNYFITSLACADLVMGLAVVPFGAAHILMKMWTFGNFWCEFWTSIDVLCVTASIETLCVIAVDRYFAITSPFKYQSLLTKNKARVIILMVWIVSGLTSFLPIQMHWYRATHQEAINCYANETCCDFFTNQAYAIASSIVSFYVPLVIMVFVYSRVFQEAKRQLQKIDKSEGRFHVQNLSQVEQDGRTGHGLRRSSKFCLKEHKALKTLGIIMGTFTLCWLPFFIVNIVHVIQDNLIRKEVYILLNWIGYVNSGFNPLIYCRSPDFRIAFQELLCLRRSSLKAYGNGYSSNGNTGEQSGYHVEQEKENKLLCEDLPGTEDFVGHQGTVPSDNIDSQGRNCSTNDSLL
Description: Agonist activity at human recombinant beta2 adrenergic receptor expressed in CHO cells assessed as induction of intracellular cAMP accumulation after 30 to 45 mins

[4] = biological target: Beta-3 adrenergic receptor (Homo sapiens, UniProt P13945)
Sequence of Beta-3 adrenergic receptor (P13945 whole entry): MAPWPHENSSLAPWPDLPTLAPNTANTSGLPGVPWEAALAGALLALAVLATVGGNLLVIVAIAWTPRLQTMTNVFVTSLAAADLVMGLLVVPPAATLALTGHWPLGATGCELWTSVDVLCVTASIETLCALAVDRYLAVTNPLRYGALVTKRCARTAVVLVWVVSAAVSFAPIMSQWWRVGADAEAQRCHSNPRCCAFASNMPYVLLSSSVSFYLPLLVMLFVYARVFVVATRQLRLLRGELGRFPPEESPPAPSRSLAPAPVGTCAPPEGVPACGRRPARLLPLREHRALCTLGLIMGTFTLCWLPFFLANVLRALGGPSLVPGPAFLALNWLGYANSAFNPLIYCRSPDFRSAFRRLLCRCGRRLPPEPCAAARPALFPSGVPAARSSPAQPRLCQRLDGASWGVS
Description: Agonist activity at human recombinant beta3 adrenergic receptor expressed in CHO cells assessed as induction of intracellular cAMP accumulation after 30 to 45 mins

[5] = biological target: Beta-1 adrenergic receptor (Homo sapiens, UniProt P08588)
Sequence of Beta-1 adrenergic receptor (P08588 whole entry): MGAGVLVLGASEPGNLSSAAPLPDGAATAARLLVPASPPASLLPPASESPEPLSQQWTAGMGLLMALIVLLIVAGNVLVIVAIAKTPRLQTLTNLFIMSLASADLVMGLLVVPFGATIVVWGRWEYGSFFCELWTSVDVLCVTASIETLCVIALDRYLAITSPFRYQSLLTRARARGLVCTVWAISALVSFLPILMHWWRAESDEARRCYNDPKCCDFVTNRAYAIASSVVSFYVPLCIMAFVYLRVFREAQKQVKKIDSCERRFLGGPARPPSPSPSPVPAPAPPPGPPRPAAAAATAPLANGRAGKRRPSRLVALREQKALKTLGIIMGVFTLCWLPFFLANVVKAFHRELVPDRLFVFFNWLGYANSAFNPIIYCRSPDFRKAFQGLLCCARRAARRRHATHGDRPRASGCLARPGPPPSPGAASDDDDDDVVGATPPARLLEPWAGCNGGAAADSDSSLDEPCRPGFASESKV
Description: Agonist activity at human recombinant beta-1 adrenergic receptor expressed in CHO cells assessed as induction of intracellular cAMP accumulation after 30 to 45 mins

Cavia porcellus [6] = organism: Cavia porcellus; assay: Bronchodialatory activity against electrically-stimulated contraction in guinea pig trachea assessed as inhibition of recovery of contractile effect measured after 1 hr of drug washout; format: functional, tissue-based
[7] = Solubility at pH 7.4; format: physicochemical; conditions: buffer
[8] = Cmax in Han Wistar rat at 2 mg/kg, po after 8 hrs by LC/MS/MS analysis; format: ADME, organism-based; set-up: dose 2 mg/kg, route oral; conditions: in vivo
[9] = Half life in Han Wistar rat at 0.25 mg/kg, iv by LC/MS/MS analysis; format: ADME, organism-based; set-up: dose 0.25 mg/kg, route intravenous; conditions: in vivo
Cavia porcellus [10] = assay: Ex vivo bronchodilatory activity in guinea pig assessed as protection against histamine-induced bronchospasm administered via nebulizer; format: functional
[11] = Volume of distribution at steady state in Han Wistar rat at 0.25 mg/kg, iv after 8 hrs by LC/MS/MS analysis; format: ADME, organism-based; set-up: dose 0.25 mg/kg, route intravenous; conditions: in vivo, read-out: Vdss
[12] = Oral bioavailability in Han Wistar rat at 2 mg/kg after 8 hrs by LC/MS/MS analysis; format: ADME, organism-based; conditions: in vivo
[13] = Plasma clearance in Han Wistar rat at 0.25 mg/kg, iv after 8 hrs by LC/MS/MS analysis; format: ADME, organism-based; set-up: dose 0.25 mg/kg, route intravenous
Cavia porcellus [14] = assay: Ex vivo bronchodilatory activity against histamine-induced bronchospasm in guinea pig assessed as time taken for 50% recovery of bronchospasm at 10-fold EC90 administered via nebulizer; format: functional
[15] = Oral bioavailability in rat; format: ADME, organism-based; conditions: in vivo
Cavia porcellus [16] = assay: Ex vivo bronchodilatory activity against histamine-induced bronchospasm in guinea pig assessed as time taken for 50% recovery of bronchospasm at EC90 administered via nebulizer; format: functional

| Compound | EC50 [3] [nM] | EC50 [4] [nM] | EC50 [5] [nM] | further results |
| --- | --- | --- | --- | --- |
| CC(=O)O.OCc1cc([C@@H](O)CNCCCCCCOCCOCc2cccc3ccccc23)ccc1O | 0.126 | 5.01 | 12.6 | Activity (Cavia porcellus [1]): Active; Time [2]: 10.2 min; Activity (Cavia porcellus [6]): Active |
| NS(=O)(=O)c1ccc(COCCOCCCCCCNC[C@H](O)c2ccc(O)c(CO)c2)cc1 | 2 | 398 | 100 |  |
| NC(=O)Nc1cccc(COCCOCCCCCCNC[C@H](O)c2ccc(O)c(CO)c2)c1 | 1.58 | 316 | 20 |  |
| NS(=O)(=O)c1cccc(COCCOCCCCCCNC[C@H](O)c2ccc(O)c(CO)c2)c1 | 1.58 | 126 | 50.1 |  |
| O=C(O)/C(=C/c1ccccc1)c1ccccc1.OCc1cc([C@@H](O)CNCCCCCCOCCOCc2c(Cl)cccc2Cl)ccc1O [VILANTEROL .ALPHA.-PHENYL CINNAMATE] |  |  |  | solubility [7]: 190 µg/mL |
| O=C(O)C(c1ccccc1)(c1ccccc1)c1ccccc1.OCc1cc([C@@H](O)CNCCCCCCOCCOCc2c(Cl)cccc2Cl)ccc1O [VILANTEROL TRIFENATATE] |  |  |  | solubility [7]: 33 µg/mL |
| OCc1cc([C@@H](O)CNCCCCCCOCCOCc2cccc(O)c2)ccc1O |  | 31.6 | 20 |  |
| CS(=O)(=O)Nc1cccc(COCCOCCCCCCNC[C@H](O)c2ccc(O)c(CO)c2)c1 | 0.251 | 79.4 | 12.6 |  |
| CC(=O)O.OCc1cc([C@@H](O)CNCCCCCCOCCOCc2ccccc2)ccc1O | 2.51 | 39.8 | 31.6 | Activity (Cavia porcellus [1]): Active; Time [2]: 4.8 min |
| OCCOCCCCCCNC[C@H](O)c1ccc(O)c(CO)c1 |  | 12600 |  |  |
| OCc1cc([C@@H](O)CNCCCCCCOCCOCc2cc(Cl)ccc2Cl)ccc1O |  | 7.94 | 12.6 |  |
| OCc1cc([C@@H](O)CNCCCCCCOCCOCc2c(Cl)cccc2Cl)ccc1O |  |  |  | Activity (Cavia porcellus [1]): Active; Activity (Cavia porcellus [6]): Active |
| CC(=O)O.OCc1cc([C@@H](O)CNCCCCCCOCCOCc2c(Cl)cccc2Cl)ccc1O [VILANTEROL ACETATE] |  | 794 |  | Time [2]: 6.6 min; Cmax [8]: < 2 ng/mL; half-life [9]: 48 min; EC90 (Cavia porcellus [10]): 30000 nM; Vd [11]: 4.4 L/kg; bioavailability [12]: < 5%; clearance [13]: 123 mL/min/kg; Time (Cavia porcellus [14]): 17 h |
| OCc1cc(C(O)CNCCCCCCOCCCCc2ccccc2)ccc1O (stereo not given) [SALMETEROL] |  |  |  | Activity (Cavia porcellus [1]): Active; EC90 (Cavia porcellus [10]): 50000 nM; bioavailability [15]: 10%; Time (Cavia porcellus [16]): 10 h; Activity (Cavia porcellus [6]): Active |
| Cc1ccc(COCCOCCCCCCNC[C@H](O)c2ccc(O)c(CO)c2)cc1 | 2.51 |  |  |  |
| OCc1cc([C@@H](O)CNCCCCCCOCCOCc2ccc(O)cc2)ccc1O | 7.94 | 63.1 | 79.4 |  |
| CC(=O)O.Cc1cc(C)cc(COCCOCCCCCCNC[C@H](O)c2ccc(O)c(CO)c2)c1 |  | 5.01 | 7.94 | Time [2]: 6.9 min; Activity (Cavia porcellus [6]): Active |
| OCc1cc([C@@H](O)CNCCCCCCOCCOCc2ccc(Cl)cc2)ccc1O | 2.51 |  |  |  |
